Reference: PubChem BioAssay (NCI)
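Dose response: 5 concentrations. Exposure: 48 h. Format: 96-well plates. Endpoint: linear interpolation; highest concentration if not reached. The concentration for full growth arrest is given as TGI.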

Assays:
Assay in all cases: growth of human tumour cells (NCI), 48 h
PC-3 prostate = system: PC-3 prostate
TK-10 renal = system: TK-10 renal
SF-295 CNS = system: SF-295 CNS
OVCAR-5 ovarian = system: OVCAR-5 ovarian
NCI-H23 lung = system: NCI-H23 lung
UACC-62 melanoma = system: UACC-62 melanoma
UACC-257 melanoma = system: UACC-257 melanoma
NCI/ADR-RES ovarian = system: NCI/ADR-RES ovarian
COLO 205 colon = system: COLO 205 colon
LOX IMVI melanoma = system: LOX IMVI melanoma
UO-31 renal = system: UO-31 renal
SK-OV-3 ovarian = system: SK-OV-3 ovarian
MCF7 breast = system: MCF7 breast
OVCAR-4 ovarian = system: OVCAR-4 ovarian
SK-MEL-5 melanoma = system: SK-MEL-5 melanoma
A498 renal = system: A498 renal
HS 578T breast = system: HS 578T breast
CCRF-CEM leukemia = system: CCRF-CEM leukemia
MDA-MB-231 breast = system: MDA-MB-231 breast
SK-MEL-2 melanoma = system: SK-MEL-2 melanoma
SNB-19 CNS = system: SNB-19 CNS
SK-MEL-28 melanoma = system: SK-MEL-28 melanoma
SF-268 CNS = system: SF-268 CNS
SNB-75 CNS = system: SNB-75 CNS
NCI-H226 lung = system: NCI-H226 lung
KM12 colon = system: KM12 colon
U251 CNS = system: U251 CNS
SR leukemia = system: SR leukemia
EKVX NSCLC = system: EKVX NSCLC
SF-539 CNS = system: SF-539 CNS
MDA-MB-435 = system: MDA-MB-435
HOP-62 NSCLC = system: HOP-62 NSCLC
IGROV1 ovarian = system: IGROV1 ovarian
MDA-N = system: MDA-N
A549 NSCLC = system: A549 NSCLC
OVCAR-3 ovarian = system: OVCAR-3 ovarian
NCI-H460 lung = system: NCI-H460 lung
HOP-92 NSCLC = system: HOP-92 NSCLC
HT29 colon = system: HT29 colon
HL-60(TB) leukemia = system: HL-60(TB) leukemia
RXF 393 renal = system: RXF 393 renal
HCT-116 colon = system: HCT-116 colon
SN12C renal = system: SN12C renal
T-47D breast = system: T-47D breast
DU-145 prostate = system: DU-145 prostate
MOLT-4 leukemia = system: MOLT-4 leukemia
OVCAR-8 ovarian = system: OVCAR-8 ovarian
HCT-15 colon = system: HCT-15 colon
SW-620 colon = system: SW-620 colon
K-562 leukemia = system: K-562 leukemia
MALME-3M melanoma = system: MALME-3M melanoma
ACHN renal = system: ACHN renal
CAKI-1 renal = system: CAKI-1 renal
786-0 renal = system: 786-0 renal
M14 melanoma = system: M14 melanoma
BT-549 breast = system: BT-549 breast
RPMI-8226 leukemia = system: RPMI-8226 leukemia
HCC-2998 colon = system: HCC-2998 colon
NCI-H522 lung = system: NCI-H522 lung

Measured: TGI

CCOC(=O)c1cnc2[nH]ccn2c1=O
not listed: HCC-2998 colon | NCI-H522 lung
> 10 µM: all other assays above

CO/N=C1/c2sccc2[C@H](NC(=O)CNC(=O)OC(C)(C)C)[C@@H]1O
not listed: KM12 colon | ACHN renal | 786-0 renal | RPMI-8226 leukemia | NCI-H522 lung
> 100 µM: all other assays above

CSc1c(C(=O)Nc2ccc(C)cc2)c(N)[nH]c(=O)c1C#N
not listed: SF-295 CNS | HOP-62 NSCLC | IGROV1 ovarian | HOP-92 NSCLC | ACHN renal
> 100 µM: all other assays above
